The assay has as its system vaccin monovalent de la grippe (vaccin NIB16, souche A) (HA). In words: Immunisation of mice with monovalent influenza vaccine, steroid as adjuvant; total anti-HA IgG in serum by enzyme immunoassay. The format is in vivo, souris BALB/C. As to conditions: aged mice compared with young mice; steroid given with HA. The protocol: Un protocole d'immunisation contre le vaccin monovalent de la grippe (vaccin NIB16, souche A) (HA), est utilisé pour tester l'effet adjuvant du dérivé 3β-palmitoyl de la 7αOH-DHEA mis en solution à 10 mg/ml dans le DMSO.
Trois lots de 5 souris BALB/C âgées de 6 semaines (jeunes) et trois lots de 5 souris BALB/C âgées de 90 semaines (âgées) subissent le premier jour une injection sous-cutanée de 0,5 ml de sérum physiologique contenant : • soit 8 µg de HA + 1,8 µmole (0,78 mg/kg) de 3β-palmitoyl-7αOH-DHEA (lot 1) • soit 8 µg de HA + 1,8 µmole (0,56 mg/kg) de 7αOH-DHEA (lot 2) • soit 8 µg de HA (lot 3) Après 28 jours, chaque souris de chaque lot subit un rappel, les injections décrites étant répétées pour chaque lot. Après 38 jours, chaque souris de chaque lot est sacrifiée et le sang prélevé. Les IgG totales anti-HA sont mesurées dans chaque sérum par une méthode immunoenzymatique. […] Tableau 1

Molecules are shown by their SMILES. Entries after “also recorded” stand apart in the source; their conditions may differ.

The values below come from patent EP0844879B1, “PHARMACEUTICAL CO[…] D[…] IN […] IMMUNE RESPONSE” (LA[…] SPINDLER, priority 1995, dated 1996).

On to `CCCCCCCCCCCCCCCC(=O)O[C@H]1CC[C@@]2(C)C(=C[C@@H](O)[C@@H]3[C@@H]2CC[C@]2(C)C(=O)CC[C@@H]32)C1` [3β-palmitoyl-7αOH-DHEA], for which the “réponse immunitaire des souris âgées (result in words)” value was “rétablit la réponse immunitaire des souris âgées à un niveau proche de celui des souris jeunes; also recorded: a un effet sur la réponse immunitaire des souris âgées comparable à celui obtenu chez les souris jeunes”.
In the case of `C[C@]12CC[C@H](O)CC1=C[C@@H](O)[C@@H]1[C@@H]2CC[C@]2(C)C(=O)CC[C@@H]12` [7αOH-DHEA, reference compound], the “réponse immunitaire des souris âgées (result in words)” value is “cette réponse n'est pas obtenue”.
